Results as given in patent publication US3995055A, “Method for treating peptic ulcers” (priority 1975, dated 1976).
Entries after “also recorded” stand apart in the source; their conditions may differ. Structures can show the parent of a compound that is named as a salt.

Experiments:
[1] = system: acetic ulcers; experiment: 10% Acetic Acid Ulcer Test; assay type: in vivo, Wistar rats; conditions: for Effectiveness on Acetic Ulcer (defensive factors): Table 1
Description: Each of the drugs shown in FIG. 1 was orally administered to the rats once a day for 8 days starting on the date on which the acetic acid was injected. On the ninth day the rats were killed under ether anaesthesia. The stomach of each rat was removed, and opened along the greater curvature. The ulcer index was measured by means of slide calipers, and then the glandular stomach tissue was homogenized by adding a suitable amount of a physiological salt solution, and centrifuged for 20 minutes at a rate of 12,000 rpm.

[2] = system: Shay ulcers; experiment: Shay Ulcer Test (oral administration); assay type: in vivo, Donryu rats; conditions: for Effectiveness on Shay Ulcer (aggressive factors): Table 1; for inhibitory ratio (Shay ulcer): 18 hours after ligation
Description: (§1) Donryu rats each weighing 200 to 240 g (six in each group) were starved for 48 hours, and ligated at a portion of the duodenum near the pylorus by the method of Shay et al (see Gastroenterology, 54, 43 (1945)). Immediately after the ligation, DV-1006 was orally administered to the rats at a dosage of 300 mg/Kg. After 18 hours, the abdomen of each of the rats was incised, and the stomach was removed.
In the same way as described above, gefarnate, a conventional anti-ulcer agent, was administered to the rats at a dosage of 100 mg/Kg.

[3] = system: drug ulcers; experiment: Drug Ulcer Test (indomethacin, aspirin, phenylbutazone); assay type: in vivo, rats; conditions: for Effectiveness on Drug Ulcer (defensive factors): Table 1; for Inhibitory Ratio, Aspirin ulcer: aspirin 300 mg/Kg; for Inhibitory Ratio, Indomethacin ulcer: indomethacin 25 mg/Kg; for Inhibitory Ratio, Phenylbutazone ulcer: phenylbutazone 200 mg/Kg
Description: Female rats each weighing about 150 g (5 in each group) were starved for 20 hours, and then DV-1006 was administered to the rats. After one hour, 25 mg/Kg of indomethacin, 300 mg/Kg of aspirin and 200 mg/Kg of phenylbutazone, respectively, were administered orally to the rats and the rats were further starved for 5 hours. The stomach of each of the rats was removed, and the ulcer index was measured.
For comparison, the above procedure was repeated except that gefarnate and aluminum sucrose sulfate were used in their basic customary dosages.

[4] = system: Shay ulcers; experiment: Shay Ulcer Test by Intraperitoneal Administration; assay type: in vivo, Donryu rats; conditions: Rattus norvegicus, ip, 18 h, read-out: Inhibitory Ratio; for inhibition in vivo at 350 mg/kg: 350 mg/Kg intraperitoneally in 0.5% CMC
Description: as §1
Some typical compounds of formula (I) were tested on Shay ulcers in the same way as described in Example 2 except that each of the compounds was suspended in a 0.5% aqueous solution of carboxymethyl cellulose and administered intraperitoneally.

[5] = system: clamping-cortisone ulcers; experiment: Clamping-Cortisone Ulcer Test; assay type: in vivo, rats; conditions: for Effectiveness on Clamping-Cortisone Ulcer (defensive factors): Table 1
Description: (§2) Each of the drugs shown in FIG. 2 was administered orally once in a day for 14 days starting on the day on which the aluminum metal plate was removed. On the fifteenth day, the rats were killed under ether anaesthesia, and the ulcer index and the mucopolysaccharase activity in the stomach tissue were measured.
Then, 5 mg/Kg of hydrocortisone acetate was intramuscularly injected into the rats once a day for 7 days starting on the day on which the aluminum metal plate was removed. Each of the agents shown in FIG. 3 was administered orally to the rats once a day for 11 days starting on the day on which the administration of hydrocortisone acetate was stopped.

[6] = system: clamping ulcers; experiment: Clamping Ulcer Test; assay type: in vivo, Wistar male rats; conditions: for Effectiveness on Clamping Ulcer (defensive factors): Table 1
Description: as §2

[7] = system: pepsin secretion; experiment: Pepsin Secretion Inhibition Test (beef bouillon pot-au-feu soup stimulating test); assay type: in vivo, Heidenhain pouch dogs; conditions: 150 mg/Kg orally, second stimulation 75 minutes later; FIG. 4
Description: After oral administration (first stimulation) of 70 ml of a mixture (100 ml) of 6 g of beef bouillon and 6 g of pot-au-feu soup, gastric juice was extracted every 15 minutes. When the secretion of gastric juice returned almost to the value before the stimulation, DV-1006 was orally administered at a dosage of 150 mg/Kg. The second stimulation was given 75 minutes later in the same way as in the first stimulation, and the amount of gastric juice secreted and the amount of pepsin secreted were measured [by the modified method of Anson-Maskey (see J. Gen. Physiol., 16, 59 (1932))] with the passage of time.

[8] = system: carbachol stimulation; experiment: Carbachol stimulation in the Gosh and Schild method; assay type: in vivo
From the text: (§3) Incidentally, it appears from the above table that anticholinergic agents produce […] those produced by DV-1006. […] From a pharmacological standpoint, DV-1006 has the activity selectively inhibiting the secretion of pepsin without affecting acidity and the activity of pepsin itself.

[9] = General anticholinergic activities
From the text: as §3

[10] = system: gastric ulcers; experiment: Clinical test in gastric ulcer patients; assay type: in vivo
Description: Further, in order to confirm the anti-ulcer activities of the compounds of the general formula (I), clinical tests were also conducted using DV-1006 as a representative example of the compounds of the general formula (I). These clinical tests were performed on patients with gastric ulcers at National Zentsuji Hospital in Tokushima Prefecture, Japan.
30 gastric ulcer patients at the Internal Treatment Department of National Zentsuji Hospital in Tokushima Prefecture, Japan, who had been so diagnosed by X-ray and endoscopes, were treated for 8 weeks using an oral administration of DV-1006 at a dosage of 200 mg three times per day. At the end of the 8-week period, 21 patients were completely cured (70%), the condition of 7 patients had been alleviated (23%).

[11] = system: gastric juice; experiment: Mode of activity: action on gastric juice; design: key: the symbol (+) shows that a particular agent has the indicated activity; the symbol (-) shows that the particular agent does not have the indicated activity; symbol (±) shows that the particular agent has a slight activity
From the text: As stated above, DV-1006 acts very strongly both on the aggressive factors and the defensive factors as compared with conventional anti-ulcer agents. […] In the treatment of peptic ulcers, the action of an agent on the gastric juice can be classified roughly into the following five categories: […]

Compound: CN1[C@@H]2CC[C@H]1C[C@@H](OC(=O)C(CO)c1ccccc1)C2 (stereo partly shown) [atropine sulfate]
- Effectiveness on Acetic Ulcer (defensive factors) [1]: +
- Effectiveness on Shay Ulcer (aggressive factors) [2]: +
- Effectiveness on Drug Ulcer (defensive factors) [3]: -

Compound: NC[C@H]1CC[C@H](C(=O)Oc2ccc(CCC(=O)O)cc2)CC1 [drawing 3]
- inhibition in vivo at 350 mg/kg [4]: 70%

Compound: NC[C@H]1CC[C@H](C(=O)Oc2ccc(C=CC(=O)O)cc2)CC1
- inhibition in vivo at 350 mg/kg [4]: 76%

Compound: COc1cc(C=O)ccc1OC(=O)[C@H]1CC[C@H](CN)CC1
- inhibition in vivo at 350 mg/kg [4]: 84%

Compound: NC[C@H]1CC[C@H](C(=O)Oc2ccc(C(=O)O)cc2)CC1
- inhibition in vivo at 350 mg/kg [4]: 71%

Compound: NC[C@H]1CC[C@H](C(=O)Oc2ccc(-c3ccccc3)cc2)CC1
- inhibition in vivo at 350 mg/kg [4]: 58%

Compound: aluminum sucrose sulfate
- Effectiveness on Clamping-Cortisone Ulcer (defensive factors) [5]: -
- Effectiveness on Clamping Ulcer (defensive factors) [6]: +
- Effectiveness on Acetic Ulcer (defensive factors) [1]: +
- Effectiveness on Shay Ulcer (aggressive factors) [2]: +
- Inhibitory Ratio, Aspirin ulcer ([3]; 1000 mg/Kg p.o.): 38.6%
- Inhibitory Ratio, Indomethacin ulcer ([3]; 1000 mg/Kg p.o.): 40.0%
- Inhibitory Ratio, Phenylbutazone ulcer ([3]; 1000 mg/Kg p.o.): 38.0%
- Effectiveness on Drug Ulcer (defensive factors) [3]: +

Compound: NC[C@H]1CC[C@H](C(=O)Oc2ccc(CC(N)C(=O)O)cc2)CC1 (stereo partly shown)
- inhibition in vivo at 350 mg/kg [4]: 71%

Compound: NC[C@H]1CC[C@H](C(=O)Oc2ccc(CCC(=O)O)cc2)CC1 [DV-1006, 4'-(2-carboxyethyl)phenyl.trans-4-aminomethylcyclohexane carboxylate]
- Effectiveness on Clamping-Cortisone Ulcer (defensive factors) [5]: +
- action on clamping-cortisone ulcers ([5]; model of chronic ulcers): especially strong action
- action on the activity of β-glucuronidase in stomach tissue ([5]; oral once a day for 11 days, twentieth day, FIG. 3): especially significant inhibitory action
- amount of gastric juice secreted [7]: reduced
- pepsin secretion [7]: markedly inhibited
- Effectiveness on Clamping Ulcer (defensive factors) [6]: +
- action on β-glucuronidase in stomach tissue ([6]; oral once a day for 14 days, fifteenth day, FIG. 2): especially significant inhibitory action
- inhibitory activity on carbachol stimulation [8]: does not exhibit any inhibitory activity
- general anticholinergic activities [9]: does not show general anticholinergic activities
- dose-response of action on acetic acid ulcers ([1]; FIG. 1): showed a dose-response
- Effectiveness on Acetic Ulcer (defensive factors) [1]: +
- activity of the mucopolysaccharase in the ulcer portion ([1]; glandular stomach tissue, ninth day, FIG. 1): reduced
- action on ulcers caused by acetic acid (visual ulcer indices) ([1]; oral once a day for 8 days, ninth day, FIG. 1): marked inhibitory action; also recorded: especially strong action
- inhibitory ratio (Shay ulcer) ([2]; 300 mg/Kg orally, method of Adami et al.): 100%
- Effectiveness on Shay Ulcer (aggressive factors) [2]: +
- side-effects in patients ([10]; oral 200 mg three times per day, 8 weeks): No side-effects were observed
- curing effect on peptic ulcers ([10]; orally for several days at 300 to 1200 mg/day): very marked curing effect
- Inhibitory Ratio, Aspirin ulcer ([3]; 300 mg/Kg p.o.): 65.3%
- Inhibitory Ratio, Indomethacin ulcer ([3]; 300 mg/Kg p.o.): 30.2%
- Inhibitory Ratio, Phenylbutazone ulcer ([3]; 300 mg/Kg p.o.): 70.0%
- Effectiveness on Drug Ulcer (defensive factors) [3]: +
- Action on Gastric Juice: Amount of Gastric Juice ([11]; activity of controlling gastric juice): +
- Action on Gastric Juice: Acids Activity ([11]; inhibitory action on acids): -
- Action on Gastric Juice: Pepsin Activity ([11]; inhibitory action on the activity of pepsin itself): -
- Action on Gastric Juice: Acid Secretion ([11]; inhibitory action on the secretion of acids): ±
- Action on Gastric Juice: Pepsin Secretion ([11]; inhibitory action on the secretion of pepsin): +

Compound: NC[C@H]1CC[C@H](C(=O)Oc2ccc(Cl)cc2)CC1
- inhibition in vivo at 175 mg/kg ([4]; 175 mg/Kg intraperitoneally in 0.5% CMC): 62%

Compound: NC[C@H]1CC[C@H](C(=O)Oc2ccc3ccccc3c2)CC1
- inhibition in vivo at 350 mg/kg [4]: 84%

Compound: NC[C@H]1CC[C@H](C(=O)Oc2ccccc2)CC1
- inhibition in vivo at 350 mg/kg [4]: 84%

Compound: CC(C)=CCC/C(C)=C/CC/C(C)=C/CCC(=O)OC/C=C(\C)CCC=C(C)C [gefarnate]
- Effectiveness on Clamping-Cortisone Ulcer (defensive factors) [5]: +
- Effectiveness on Clamping Ulcer (defensive factors) [6]: +
- Effectiveness on Acetic Ulcer (defensive factors) [1]: -
- inhibitory ratio (Shay ulcer) ([2]; 100 mg/Kg orally): 83%
- Effectiveness on Shay Ulcer (aggressive factors) [2]: -
- Inhibitory Ratio, Aspirin ulcer ([3]; 100 mg/Kg p.o.): 42.8%
- Inhibitory Ratio, Indomethacin ulcer ([3]; 100 mg/Kg p.o.): 29.0%
- Inhibitory Ratio, Phenylbutazone ulcer ([3]; 100 mg/Kg p.o.): 31.5%
- Effectiveness on Drug Ulcer (defensive factors) [3]: +
